Test results from ChEMBL document CHEMBL3580557, “Anti-inflammatory Terpenoids from the Leaves and Twigs of Dysoxylum gotadhora” (J Nat Prod, 2015).

Columns and labels:
[1] = test system: RAW264.7; test: Antiinflammatory activity in mouse RAW264.7 cells assessed as inhibition of LPS-induced nitric oxide production at 3.1 uM after 24 hrs by Griess assay relative to control; format: functional; details: RAW264.7, 24 h
[2] = test system: RAW264.7; test: Antiinflammatory activity in mouse RAW264.7 cells assessed as inhibition of LPS-induced nitric oxide production at 25 uM after 24 hrs by Griess assay relative to control; format: functional; details: RAW264.7, 24 h
[3] = test system: RAW264.7; test: Cytotoxicity against mouse RAW264.7 cells assessed as cell viability after 16 hrs by MTT assay; format: cell-based; details: raw264.7, 16 h
[4] = test system: RAW264.7; test: Antiinflammatory activity in mouse RAW264.7 cells assessed as inhibition of LPS-induced nitric oxide production at 50 uM after 24 hrs by Griess assay relative to control; format: functional; details: RAW264.7, 24 h
[5] = test system: RAW264.7; test: Antiinflammatory activity in mouse RAW264.7 cells assessed as inhibition of LPS-induced nitric oxide production at 6.3 uM after 24 hrs by Griess assay relative to control; format: functional; details: RAW264.7, 24 h
[6] = test system: RAW264.7; test: Antiinflammatory activity in mouse RAW264.7 cells assessed as inhibition of LPS-induced nitric oxide production at 12.5 uM after 24 hrs by Griess assay relative to control; format: functional; details: RAW264.7, 24 h
[7] = test system: RAW264.7; test: Antiinflammatory activity in mouse RAW264.7 cells assessed as inhibition of LPS-induced nitric oxide production after 24 hrs by Griess assay; format: functional, cell-based; details: RAW264.7, 24 h

Row | IC50 [7] [µM] | Compound | inhibition at 3.1 µM [1] [%] | inhibition at 25 µM [2] [%] | Activity [3] | inhibition at 50 µM [4] [%] | inhibition at 6.3 µM [5] [%] | inhibition at 12.5 µM [6] [%]
1 | 45.2 | COC(=O)/C=C(\C)CC[C@@]1(C)[C@H](C)CC[C@@]2(C)C(C)=CC(=O)C[C@H]12 | 19.4 | 35.3 | Non-toxic | 56.6 | 19.9 | 24.8
2 | 41.5 | CC1(C)OC[C@@H]([C@H]2CC[C@@]3(C)[C@@H]4CC[C@H]5C(C)(C)C(=O)CC[C@@]56C[C@@]46CC[C@]23C)C[C@@H](O)[C@@H]1O | 11.3 | 28.3 | Non-toxic | 58.9 | 4.5 | 13.5

Second part, the molecule before the results:

Row | Compound | IC50 [7] [µM] | inhibition at 3.1 µM [1] [%] | inhibition at 25 µM [2] [%] | Activity [3] | inhibition at 50 µM [4] [%] | inhibition at 6.3 µM [5] [%] | inhibition at 12.5 µM [6] [%]
3 | C=C[C@@]1(C)CC(=O)[C@H]2[C@@H](CC[C@H]3C(C)(C)[C@@H](O)CC[C@]23C)C1 | 14.5 | 19.8 | 63.8 | Non-toxic | 92.4 | 25.6 | 41.5
4 | C[C@H](C[C@@H](O)[C@H](O)C(C)(C)O)[C@H]1CC[C@@]2(C)[C@@H]3CC[C@H]4C(C)(C)C(=O)CC[C@@]45C[C@@]35CC[C@]12C | 27.4 | 12.8 | 48.5 | Non-toxic | 79.1 | 17.9 | 23.8
5 | CC(C)(O)[C@H]1OC[C@@H]([C@H]2CC[C@@]3(C)[C@@H]4CC[C@H]5C(C)(C)C(=O)CC[C@@]56C[C@@]46CC[C@]23C)C[C@@H]1O | 25.5 | 12.5 | 49 | Non-toxic | 76.2 | 18.5 | 23.2
6 | COc1ccc2c(c1)c(CC(=O)O)c(C)n2C(=O)c1ccc(Cl)cc1 [INDOMETHACIN] |  | 21.5 | 44.3 |  | 57.9 | 24.5 | 38.5
